Assay results from ChEMBL document CHEMBL1151048, “Synthesis and antimicrobial activity of 5-thioabbeymycin: limitations of the iminothioether approach to carbinolamine-containing pyrrolobenzodiazepines” (1993).

Legend:
Format in all cases: functional
[1] = system: Pseudomonas aeruginosa; test: Minimum bactericidal concentration against Pseudomonas aeruginosa; value ranges from 2-4 ug cm-3
[2] = system: Pseudomonas aeruginosa; test: Minimum inhibitory concentration against Pseudomonas aeruginosa; value ranges from 2-4 ug cm-3
[3] = system: Staphylococcus aureus; test: Minimum inhibitory concentration against Staphylococcus aureus; value ranges from 2-4 ug cm-3
[4] = system: Staphylococcus aureus; test: Minimum bactericidal concentration against Staphylococcus aureus; value ranges from 2-8 ug cm-3

O[C@H]1C[C@H]2C=Nc3ccccc3C(=S)N2C1
2 ug cm**-3: MBC [1] | MIC [2] | MIC [3] | MBC [4]
